These compounds were tested against human recombinant P2X7 receptor (Homo sapiens (Human), UniProt Q99572) (assay: YO-PRO assay: P2X7 receptor antagonistic activity (ATP-induced YO-PRO-1 uptake, FLIPR)). Details: not given.
Sequence of human recombinant P2X7 receptor (Q99572 whole entry): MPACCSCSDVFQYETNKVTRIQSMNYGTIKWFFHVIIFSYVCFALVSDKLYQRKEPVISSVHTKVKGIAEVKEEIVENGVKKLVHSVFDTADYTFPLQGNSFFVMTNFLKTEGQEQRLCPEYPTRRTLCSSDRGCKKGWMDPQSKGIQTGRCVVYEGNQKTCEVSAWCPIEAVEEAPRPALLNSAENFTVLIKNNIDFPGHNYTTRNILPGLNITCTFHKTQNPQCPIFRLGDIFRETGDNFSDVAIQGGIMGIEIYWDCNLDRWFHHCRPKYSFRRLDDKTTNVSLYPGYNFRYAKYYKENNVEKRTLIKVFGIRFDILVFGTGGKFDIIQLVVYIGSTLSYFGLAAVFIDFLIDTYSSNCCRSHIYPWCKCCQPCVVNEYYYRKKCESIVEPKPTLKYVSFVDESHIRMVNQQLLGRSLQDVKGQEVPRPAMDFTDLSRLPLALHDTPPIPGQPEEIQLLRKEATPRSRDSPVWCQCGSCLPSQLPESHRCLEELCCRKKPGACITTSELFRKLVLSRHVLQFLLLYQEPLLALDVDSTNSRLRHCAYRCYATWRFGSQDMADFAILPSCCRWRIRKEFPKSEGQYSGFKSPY

| Compound | IC50 [nM] |
| --- | --- |
| [2H]C([2H])([2H])c1cc(Cl)cc(Cl)c1CNC(=O)C1COc2ncccc21 (single isomer, unassigned) [Example 97, 2,3-Dihydro-furo[2,3-b]pyridine-3-carboxylic acid 2,4-dichloro-6-trideuteromethyl-benzylamide] | 20 |
| [2H]C([2H])([2H])c1cc(Cl)cc(Cl)c1CNC(=O)C1COc2ncccc21 (single isomer, unassigned) [Example 98, 2,3-Dihydro-furo[2,3-b]pyridine-3-carboxylic acid 2,4-dichloro-6-trideuteromethyl-benzylamide] | 1.8 |
| O=C(NC1CCc2cc(Cl)ccc21)C1COc2ncccc21 (single isomer, unassigned) [Example 99, rac-2,3-Dihydro-furo[2,3-b]pyridine-3-carboxylic acid (5-chloro-indan-1-yl)-amide] | 301 |
| O=C(NC1CCc2cc(Cl)ccc21)C1COc2ncccc21 (single isomer, unassigned) [Example 100, rac-2,3-Dihydro-furo[2,3-b]pyridine-3-carboxylic acid (5-chloro-indan-1-yl)-amide] | 59.9 |

Same assay, conditions: read-out: IC50 [nM], antagonistic activities with respect to the P2X7 receptor

| Compound | IC50 [nM] |
| --- | --- |
| (S)-2,3-Dihydro-furo[2,3-b]pyridine-3-carboxylic acid (R)-indan-1-ylamide and (R)-2,3-Dihydro-furo[2,3-b]pyridine-3-carboxylic acid (R)-indan-1-ylamide [Example 69] | 400 |

Same assay, conditions: read-out: IC50 [nM], antagonistic activities with respect to the P2X7 receptor; HEK-293 cells expressing human recombinant P2X7 receptor; YO-PRO-1 fluorescence; ATP 250 μM, 90 minutes; highest concentration 10 μM

| Compound | IC50 [nM] |
| --- | --- |
| O=C(NCc1c(Cl)cc(Cl)cc1Br)C1COc2ncccc21 (single isomer, unassigned) [Example 80, 2,3-Dihydro-furo[2,3-b]pyridine-3-carboxylic acid 2-bromo-4,6-dichloro-benzylamide] | 4.1 |
| O=C(NCC(c1cnc(C(F)(F)F)nc1)N1CCOCC1)C1COc2ncccc21 (single isomer, unassigned) [Example 81, 2,3-Dihydro-furo[2,3-b]pyridine-3-carboxylic acid [2-morpholin-4-yl-2-(2-trifluoromethyl-pyrimidin-5-yl)-ethyl]-amide] | 7520 |
| O=C(NCC(c1cnc(C(F)(F)F)nc1)N1CCOCC1)C1COc2ncccc21 (single isomer, unassigned) [Example 82, 2,3-Dihydro-furo[2,3-b]pyridine-3-carboxylic acid [2-morpholin-4-yl-2-(2-trifluoromethyl-pyrimidin-5-yl)-ethyl]-amide] | 2230 |
| O=C(NC(CO)C1CCCCCC1)C1CCOc2ncccc21 (stereo not shown) [Example 52, 3,4-Dihydro-2H-pyrano[2,3-b]pyridine-4-carboxylic acid (1-cycloheptyl-2-hydroxy-ethyl)-amide] | 276 |
| O=C(NCC(c1cnc(C(F)(F)F)nc1)N1CCC(F)(F)CC1)C1COc2ncccc21 (stereo not shown) [Example 62, 2,3-Dihydro-furo[2,3-b]pyridine-3-carboxylic acid [2-(4,4-difluoro-piperidin-1-yl)-2-(2-trifluoromethyl-pyrimidin-5-yl)-ethyl]-amide] | 46.9 |
| O=C(NC1CC1c1ccccc1)C1COc2ncccc21 (stereo not shown) [Example 64, 2,3-Dihydro-furo[2,3-b]pyridine-3-carboxylic acid (2-phenyl-cyclopropyl)-amide] | 4850 |
| NC(=O)C1CCCCC1NC(=O)C1COc2ncccc21 (stereo not shown) [Example 66, 2,3-Dihydro-furo[2,3-b]pyridine-3-carboxylic acid (2-carbamoyl-cyclohexyl)-amide] | 5880 |
| C[C@@H](NC(=O)C1COc2ncccc21)c1ccc(Cl)cc1Cl (stereo partly drawn) [Example 70, 2,3-Dihydro-furo[2,3-b]pyridine-3-carboxylic acid [(R)-1-(2,4-dichloro-phenyl)-ethyl]-amide] | 110 |
| C[C@@H](NC(=O)C1COc2ncccc21)c1ccc(Cl)cc1Cl (stereo partly drawn) [Example 71, 2,3-Dihydro-furo[2,3-b]pyridine-3-carboxylic acid [(R)-1-(2,4-dichloro-phenyl)-ethyl]-amide] | 36.5 |
| O=C(NCC(c1ccc(C(F)(F)F)cc1)N1CCC(F)(F)CC1)C1COc2ncccc21 (stereo not shown) [Example 78, 2,3-Dihydro-furo[2,3-b]pyridine-3-carboxylic acid [2-(4,4-difluoro-piperidin-1-yl)-2-(4-trifluoromethyl-phenyl)-ethyl]-amide] | 122 |
| O=C(NCC(c1cnc(C(F)(F)F)nc1)N1CCOCC1)C1COc2ncccc21 (stereo not shown) [Example 83, 2,3-Dihydro-furo[2,3-b]pyridine-3-carboxylic acid [2-morpholin-4-yl-2-(2-trifluoromethyl-pyrimidin-5-yl)-ethyl]-amide] | 124 |
| O=C(NCC(c1cnc(C(F)(F)F)nc1)N1CCOCC1)C1COc2ncccc21 (stereo not shown) [Example 84, 2,3-Dihydro-furo[2,3-b]pyridine-3-carboxylic acid [2-morpholin-4-yl-2-(2-trifluoromethyl-pyrimidin-5-yl)-ethyl]-amide] | 20.8 |
| COc1ccc(C(CNC(=O)C2COc3ncccc32)N2CCOCC2)cn1 (stereo not shown) [Example 87, 2,3-Dihydro-furo[2,3-b]pyridine-3-carboxylic acid [2-(6-methoxy-pyridin-3-yl)-2-morpholin-4-yl-ethyl]-amide] | 978 |
| Cc1ccc(C(CNC(=O)C2COc3ncccc32)N2CCOCC2)cn1 (stereo not shown) [Example 90, 2,3-Dihydro-furo[2,3-b]pyridine-3-carboxylic acid [2-(6-methyl-pyridin-3-yl)-2-morpholin-4-yl-ethyl]-amide] | 1150 |
| O=C(NCC(c1cnc(C2CC2)nc1)N1CCOCC1)C1COc2ncccc21 (stereo not shown) [Example 91, 2,3-Dihydro-furo[2,3-b]pyridine-3-carboxylic acid [2-(2-cyclopropyl-pyrimidin-5-yl)-2-morpholin-4-yl-ethyl]-amide] | 215 |
| O=C(NCC(c1ccc(C(F)(F)F)nc1)N1CCOCC1)C1COc2ncccc21 (stereo not shown) [Example 92, 2,3-Dihydro-furo[2,3-b]pyridine-3-carboxylic acid [2-morpholin-4-yl-2-(6-trifluoromethyl-pyridin-3-yl)-ethyl]-amide] | 82.2 |
| O=C(N[C@@H]1CCCc2ccccc21)C1COc2ncccc21 (stereo partly drawn) [Example 107, 2,3-dihydrofuro[2,3-b]pyridine-3-carboxylic acid ((R)-1,2,3,4-tetrahydronaphthalen-1-yl)-amide] | 1220 |
| O=C(N[C@@H]1CCCc2ccccc21)C1COc2ncccc21 (stereo partly drawn) [Example 108, 2,3-dihydrofuro[2,3-b]pyridine-3-carboxylic acid ((R)-1,2,3,4-tetrahydronaphthalen-1-yl)-amide] | 191 |
| O=C(N[C@@H]1CCCc2cccc(Cl)c21)C1COc2ncccc21 (stereo partly drawn) [Example 111, 2,3-Dihydro-furo[2,3-b]pyridine-3-carboxylic acid ((R)-8-chloro-1,2,3,4-tetrahydro-naphthalen-1-yl)-amide] | 221 |
| O=C(N[C@@H]1CCCc2cccc(Cl)c21)C1COc2ncccc21 (stereo partly drawn) [Example 112, 2,3-Dihydro-furo[2,3-b]pyridine-3-carboxylic acid ((R)-8-chloro-1,2,3,4-tetrahydro-naphthalen-1-yl)-amide] | 9.5 |
| O=C(NC1CCc2cccc(Br)c21)C1COc2ncccc21 (stereo not shown) [Example 113, 2,3-Dihydro-furo[2,3-b]pyridine-3-carboxylic acid (7-bromo-indan-1-yl)-amide] | 35.9 |
| O=C1c2c(Cl)cc(Cl)cc2CC1NC(=O)C1COc2ncccc21 (stereo not shown) [Example 116, 2,3-Dihydro-furo[2,3-b]pyridine-3-carboxylic acid (5,7-dichloro-1-oxo-indan-2-yl)-amide] | 9010 |
| (S)-2,3-Dihydro-furo[2,3-b]pyridine-3-carboxylic acid ((1S,2R)-2-hydroxy-indan-1-yl)-amide and (R)-2,3-Dihydro-furo[2,3-b]pyridine-3-carboxylic acid ((1S,2R)-2-hydroxy-indan-1-yl)-amide [Example 65] | 3400 |

Source: patent publication US9409917B2, “Heterocyclic amide derivatives as P2X7 receptor antagonists” (ACTELION PHARMACEUTICALS LTD., priority 2012, dated 2016)
